# Results reported in patent US5268281A, “Cyclic FR-900520 microbial biotransformation agent” (Merck & Co., Inc., priority 1992, dated 1993).
# “Also recorded” adds a separate entry of the source.
# Experiments:
# [1] = test system: mouse T lymphocytes (Splenic T-cells); assay: T-Cell Proliferation Assay: inhibition of tritiated thymidine uptake in splenic T-cells stimulated with ionomycin + PMA; format: cell-based, mouse (C57Bl/6)
# Method: The principle of this assay is to measure the proliferation of mouse T lymphocytes stimulated with the combination of ionomycin plus PMA.
# Cells were pelleted by centrifugation at 1500 rpm for 8 minutes. Contaminating red cells were removed by treating the pellet with ammonium chloride lysing buffer (GIBCO) for 2 minutes at 4° C. Cold medium was added and cells were again centrifuged at 1500 rpm for 8 minutes. T lymphocytes were then isolated by separation of the cell suspension on nylon wool columns as follows: Nylon wool columns were prepared by packing approximately 4 grams of washed and dried nylon wool into 20 ml plastic syringes. The columns were sterilized by autoclaving at 250° F. for 30 minutes. Nylon wool columns were wetted with warm (37° C.) culture medium and rinsed with the same medium. Washed spleen cells resuspended in warm medium were slowly applied to the nylon wool. The columns were then incubated in an upright position at 37° C. for 1 hour. Non-adherent T lymphocytes were eluted from the columns with warm culture medium and the cell suspensions were spun as above.
# The cell suspension was immediately distributed into 96 well flat-bottom microculture plates (Costar) at 200 μl/well. […] The proliferation of T lymphocytes was assessed by measurement of tritiated thymidine incorporation. After 44 hours of culturing, the cells were pulse-labelled with 2 μCi/well of tritiated thymidine (NEN, Cambridge, Mass.). After another 4 hours of incubation, cultures were harvested on glass fiber filters using a multiple sample harvester. Radioactivity of filter discs corresponding to individual wells was measured by standard liquid scintillation counting methods (Betacounter). Mean counts per minute of replicate wells were calculated and the results expressed as percent inhibition of tritiated thymidine uptake (proliferation) as follows: [formula]
# [2] = Solubility (physical characteristics); format: physicochemical; details: in methanol
# [3] = EPO Publication No. 0184162; cited from earlier work
SMILES,reversal of inhibition of T-cell proliferation by addition of IL2 ([1]; 50 units/ml recombinant IL2 at the initiation of culture),"FK-506 immunosuppressant activity / immunosuppressive activity in T-cell proliferation assay ([1]; ionomycin plus PMA, result in words)",Solubility [2],"inhibition at 0.01 µg/mL ([1]; Mus musculus, T-cell, 48 h, read-out: inhibition (Standard)) [%]",effectiveness relative to cyclosporin (reputed) [3] [times]
CC[C@@H]1C=C2COC1(O)C[C@H](O)[C@@H](C)[C@@H](/C(C)=C/[C@@H]1CC[C@@H](O)[C@H](OC)C1)OC(=O)[C@@H]1CCCCN1C(=O)C(=O)[C@]1(O)O[C@H]([C@@H](OC)C[C@@H](C)C2)[C@@H](OC)C[C@H]1C [Compound I],reversed,positive inhibition of T-cell activation; also recorded: positive immunosuppressive activity,Solubility in methanol,,
"C=CC[C@@H]1/C=C(\C)C[C@H](C)C[C@H](OC)[C@H]2O[C@@](O)(C(=O)C(=O)N3CCCC[C@H]3C(=O)O[C@H](/C(C)=C/[C@@H]3CC[C@@H](O)[C@H](OC)C3)[C@H](C)[C@@H](O)CC1=O)[C@H](C)C[C@@H]2OC [FR900506, reference compound]",,,,99,100
